Calls of active or inactive are those of the source.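 Rule for the calls: active = fitted curve crossing a set activation limit at or below the highest valid dose tested; inconclusive = flat fit at 30 to 70% activation, or poor fit; inactive = the rest, including signal decreases.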

In PubChem BioAssay AID624491 (Broad Institute, 2012) one finds AC26 data, which are given here for 92 molecules.

In this assay the test system is D54 ERlucT glycosylation luciferase reporter, luminescence, 24 h. As to the kind of experiment: blockers of NLG process in reporter cells – D54 ERlucT cells, luminescence, cherry-picks, dose response (AID 624491).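 Note: signal gain reflects blocked N-linked glycosylation of a luciferase reporter; actives raise luciferase signal so AC26 marks activators of the reporter.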
On to `CO/N=C\CC(=O)Nc1ccc(Cl)cc1Cl`, for which the AC26 was 1070 nM.

As to `Cc1c(C(=O)OCC(C)C)[nH]c2c1C(=O)CC(c1cccs1)C2` (configuration not stated), the AC26 is 1170 nM.

Take `COc1cc(OC)c(C2=NOC(C(=O)NCc3cccs3)C2)cc1Cl` (configuration not stated): the AC26 was 5250 nM.

As to `O=C1[C@H]2[C@@H](c3ccc(F)cc3)N3C(=O)N(c4cccc(Br)c4)C(=O)[C@@]3(Cc3ccccc3)[C@H]2C(=O)N1C1CCCCC1`, the AC26 was 114 nM.

With `COc1ccc(S(=O)(=O)NCc2ccccn2)cc1NC(=O)c1ccccc1C`, the AC26 was 2690 nM.

As for `C=CCOc1ccc(/C=C2\SC(N3CCCCC3)=NC2=O)cc1`, the AC26 was 5420 nM.

In the case of `COC(=O)c1c(C)[nH]c(C(=O)/C=C/c2cccc(Cl)c2)c1C`, the AC26 was 2410 nM.

For `COc1ccc(C=CC(=O)c2c(OC)cc(OC)c(OC)c2O)cc1`, the AC26 is 4040 nM.

On to `CC(=O)c1cccc(Nc2c3c(nc4ccccc24)CCC3)c1`, for which the AC26 is 819 nM.

Take `COc1ccc(C(=O)c2ccc(N(C)C)cc2)c2ccccc12`: the AC26 is 2000 nM.

For the molecule `COc1cc(/C=N/NC(=O)c2ccc(CSc3nc4ccccc4[nH]3)cc2)cc(OC)c1OC`, the AC26 is 3980 nM.

In the case of `CCOc1ccc2c(c1)OC(c1ccc(OC)cc1)(C(F)(F)F)NC2=O` (configuration not stated), the AC26 was 1610 nM.

`Cc1ccc(NC(=O)c2cc(S(=O)(=O)N(C)C)ccc2N2CCCC2)cc1F`: the AC26 was 109 nM.

As for `CC1=CC(C)[C@H](/C=N/n2c(=O)[nH]c3c([nH]c4ccc(C)cc43)c2=O)C(C)C1` (some centres not stated), the AC26 is 4040 nM.

With `COc1cc(-c2coc3c(C(=O)NCc4ccc(OC)c(OC)c4)cccc23)ccc1O`, the AC26 was 1220 nM.

Turning to `COc1cc(/C=N/n2cnc3scc(-c4cccs4)c3c2=O)cc(OC)c1OC`, the AC26 was 701 nM.

On to `CCOc1ccccc1C1CC(=O)Nc2cc3c(cc21)OCO3` (configuration not stated), for which the AC26 is 4370 nM.

Take `Cc1[nH]nc2c1C(c1cccc(O)c1)C1=C(CC(C)(C)CC1=O)N2` (configuration not stated): the AC26 is 1870 nM.

On to `O=C(Nc1ccccc1O)c1ccc(NS(=O)(=O)c2cccc3cccnc23)cc1`, for which the AC26 is 3930 nM.

Regarding `CCOc1ccc(Nc2c3ccccc3nc3ccccc23)cc1`, the AC26 is 365 nM.

In the case of `CC(=O)c1cccc(-c2ccnc3c2CC(C(=O)NCC2CCOCC2)O3)c1` (configuration not stated), the AC26 is 2070 nM.

As to `Cc1cccc(/C=N\Nc2cn[nH]c(=O)c2Cl)c1`, the AC26 is 4560 nM.

For `C[C@@H](NC(=O)c1nc[nH]c1C(=O)N1CCN(c2ccccc2)CC1)c1ccccc1`, the AC26 was 2110 nM.

For `O=C(Nc1ccc2oc(-c3cccnc3)nc2c1)c1ccc([N+](=O)[O-])o1`, the AC26 is 1130 nM.

Regarding `COc1cc2c(c(OC)c1OC)-c1ccc(OC)c(=O)cc1[C@@H](N(C)CC#CCO)CC2`, the AC26 is 380 nM.

With `O=C(C[C@H]1C/C=C\C[C@H](Cc2ccc(F)cc2)C(=O)O[C@@H](c2ccccc2)CNC1=O)N[C@@H](CO)Cc1ccccc1`, the AC26 was 892 nM.

Regarding `Cc1c(C(=O)Nc2ccc3oc(-c4cccnc4)nc3c2)oc2ccccc12`, the AC26 was 8840 nM.

As for `CC(=O)N1CCc2c(sc(NC(=O)c3ccc4c(c3)OCCO4)c2C#N)C1`, the AC26 was 1950 nM.

As to `C[C@H](O)[C@@H]1CN2CCc3c([nH]c4ccccc34)[C@@H]2C[C@@H]1N(C)C(=O)c1ccco1`, the AC26 is 408 nM.

Regarding `Nc1cc2c3c(cccc3c1)C(=O)N(CCN1CCCC1)C2=O`, the AC26 was 275 nM.

As for `O=C(CCN1C(=O)/C(=C/c2cccs2)SC1=S)N1CCCCC1`, the AC26 is 1220 nM.

With `COc1cc2c(cc1OC)C(c1ccccc1)N(C(=O)c1ccco1)CC2` (configuration not stated), the AC26 was 315 nM.

On to `C=CCn1c(SCc2c(C)noc2C)nc2sc3c(c2c1=O)CCC(C)C3` (configuration not stated), for which the AC26 was 2060 nM.

For `CNC(=O)c1cccn(Cc2cc(C(F)(F)F)cc(C(F)(F)F)c2)c1=O`, the AC26 is 16000 nM.

`Cc1ccc(-n2c(SCC(=O)NCCC3=CCCCC3)nc3n[nH]c(C)c3c2=N)cc1Cl`: the AC26 was 6130 nM.

For `COC(=O)c1ccccc1NC(=O)Cn1nnc(-c2ccc(OC)cc2)n1`, the AC26 was > 19500 nM (inactive).

Regarding `CCn1c(=S)[nH]c2cc(S(=O)(=O)N3CCCCC3)ccc21`, the AC26 is 1090 nM.

With `COc1ccc(C2(CNC(=O)c3cc(OC)c(OC)c(OC)c3)CCCC2)cc1OC`, the AC26 was 3140 nM.

For `COc1ccc(C2=Nn3c(nnc3-c3ccccc3F)SC2)cc1OC1CCOC1` (configuration not stated), the AC26 is 4730 nM.

For the molecule `COc1ccc2c(c1)OC[C@H]1[C@H]2N2C(=O)c3ccc(C)cc3NC(=O)[C@@]2(C)[C@H]1c1ccccc1`, the AC26 was 926 nM.

Take `Cc1cccc(C(=O)Nc2cc(S(=O)(=O)N3CCOCC3)ccc2N2CCCC2)c1`: the AC26 was 173 nM.

With `COc1ccc2cc(C)c3nnc(SCC(=O)Nc4nc(-c5ccc(F)cc5)cs4)n3c2c1`, the AC26 is 2360 nM.

For `COc1cc(C(=O)OCCc2cc3ccccc3c(=O)o2)cc(OC)c1OC`, the AC26 was 562 nM.

For `NNC(=O)c1oc2nc(-c3cccs3)cc(-c3ccco3)c2c1N`, the AC26 was 2640 nM.

Regarding `CC(=O)c1cccc(Nc2cc(C)nc3c(C)cc(C)cc23)c1`, the AC26 is 4210 nM.

On to `CC1(C(=O)NCc2ccco2)Cc2c(-c3cccc(C(F)(F)F)c3)ccnc2O1` (configuration not stated), for which the AC26 is 7710 nM.

Regarding `c1ccc2c(c1)nc(N1CCOCC1)c1c3ccccc3[nH]c21`, the AC26 was 7170 nM.

As for `O=C(NCc1cccs1)C1Cc2c(-c3ccc(Cl)cc3)ccnc2O1` (configuration not stated), the AC26 was 1670 nM.

Regarding `CC(=O)c1cccc(-c2ccnc3c2CC(C(=O)Nc2ccc4c(c2)OCO4)O3)c1` (configuration not stated), the AC26 was 2430 nM.

As for `COc1ccc(C)cc1NC(=O)CCCNC(=O)Cn1cnc2sc(C)c(C)c2c1=O`, the AC26 was 7090 nM.

In the case of `COC(=O)c1ccc(C(=O)NC2CC(C)(C)Cc3c2cnn3-c2ccc(F)cc2)nc1` (configuration not stated), the AC26 was 4170 nM.

As for `Cc1[nH][nH]c(=O)c1C(c1ccc(-c2ccc(Cl)c(Cl)c2)o1)c1c(C)[nH][nH]c1=O`, the AC26 is 917 nM.

As for `O=c1[nH]c(=O)n(C2CC(O)C(CO)O2)cc1Br` (configuration not stated), the AC26 is 1490 nM.

In the case of `O=C1c2ccccc2C(=O)N1Cc1cnc(N2CCN(c3ccccc3)CC2)s1`, the AC26 is 7870 nM.

For the molecule `CN(C)CCCN1C(=O)c2cccc3cccc(c23)C1=O`, the AC26 is 3880 nM.

For the molecule `O=C(CSc1nnc(-c2cc3ccccc3cc2O)n1Cc1ccco1)N1CCc2ccccc2C1`, the AC26 is 702 nM.

Take `CCN1C(=O)CCN(C2CCCC2)c2nc(Nc3ccc(C(=O)NC4CCN(C)CC4)cc3OC)ncc21`: the AC26 is 479 nM.

As to `CCCCCCC(=O)N(O)C1CC(=O)N(Cc2ccccc2)C1=O` (configuration not stated), the AC26 is 6200 nM.

`COc1ccc(CNC(=O)c2cccc3c(-c4cccc(C(N)=O)c4)coc23)cc1OC`: the AC26 was 663 nM.

Turning to `COc1ccccc1C(=O)Nc1ccc2c(c1)nc(CCNC(=O)c1ccco1)n2C`, the AC26 is 1550 nM.

Consider `c1ccc(-c2cc(NCCN3CCCCC3)c3ccccc3n2)cc1`, for which the AC26 was 2910 nM.

Consider `Cc1nnc2c3ccccc3c(-c3cccs3)nn12`, for which the AC26 was 3170 nM.

For `CCn1c2ccccc2c2cc(NC(=O)COC(=O)c3cc(S(N)(=O)=O)c(Cl)cc3Cl)ccc21`, the AC26 was 3710 nM.

With `C[C@H]1CN([C@@H](C)CO)C(=O)Cc2cc(NC(=O)CCC(F)(F)F)ccc2O[C@H]1CN(C)S(=O)(=O)c1ccc(F)cc1`, the AC26 was 5300 nM.

On to `CC(/C=N/NC(=O)c1cc(-c2ccc(C)s2)[nH]n1)=C\c1ccccc1`, for which the AC26 was 650 nM.

In the case of `CCc1ccc2nc3nc(C)cc(C)c3c(N)c2c1`, the AC26 is 2810 nM.

With `COC(=O)c1cn(C(=O)c2ccc(OC)cc2)c2ccccc12`, the AC26 is 730 nM.

For the molecule `COc1cc2c(cc1OC)C(c1cccs1)N(C(=O)c1cccc(S(=O)(=O)N(C)C)c1)CC2` (configuration not stated), the AC26 is 1320 nM.

As for `CC(=O)C1=C(O)C(=O)N(c2ccc(Br)cn2)C1c1ccc(Br)cc1` (configuration not stated), the AC26 is 491 nM.

Regarding `O=C(CN1C(=O)NC(c2ccccc2)(c2ccccc2)C1=O)Nc1ccc(N2CCOCC2)cc1`, the AC26 was 4200 nM.

As for `c1ccc(N=Nc2ccc3cccccc2-3)cc1`, the AC26 is 2060 nM.

`COc1ccc(-c2oc3cc(O)c(OC)c(O)c3c(=O)c2OC)cc1O`: the AC26 was 246 nM.

As for `Cn1c(SCC(=O)c2ccc(F)cc2)ncc(C(=O)Nc2ccccc2)c1=O`, the AC26 is 4770 nM.

As for `O=C1CCCC2=C1C(c1ccco1)Nc1ccc(C(=O)c3ccccc3)cc1N2` (configuration not stated), the AC26 was 16500 nM.

In the case of `COc1ccc(C2=NOC(C(=O)NCc3cccs3)C2)cc1` (configuration not stated), the AC26 was 1010 nM.

On to `COc1cc2c(cc1OC)C(=O)N1[C@H]3c4cc(C)ccc4OC[C@@H]3[C@H](c3ccccc3)[C@]1(C)C(=O)N2`, for which the AC26 is 387 nM.

For `Cc1cc(-n2c(SCC(=O)NCCC3=CCCCC3)nc3n[nH]c(C)c3c2=N)ccc1Cl`, the AC26 is 4030 nM.

For `O=C(/C=C/c1cn(-c2ccccc2)nc1-c1cccnc1)c1ccco1`, the AC26 was 628 nM.

Turning to `COc1cccc(OCc2nc3ncc(Br)cc3[nH]2)c1`, the AC26 is 1810 nM.

Regarding `COc1ccc(NC(=O)c2cc(S(=O)(=O)N(C)C)ccc2N2CCCC2)cc1Cl`, the AC26 was 4800 nM.

On to `O=C(NC1CCCCCC1)c1c2c(nc3ccccc13)CCN(Cc1ccccc1)C2`, for which the AC26 was 5800 nM.

In the case of `Cc1cc2c(cc(C(=O)OCC(=O)NCc3cccs3)n2C(C)C)o1`, the AC26 is 1740 nM.

In the case of `CCN(CC)c1ccc(/C=N\NC(=O)c2cccc3cc[nH]c23)cc1`, the AC26 was 1860 nM.

Regarding `Cc1cccc([C@@H]2[C@@H]3C(=O)N(Cc4ccccc4)C(=O)[C@@H]3[C@]3(Cc4ccccc4)C(=O)N(c4cccc(F)c4)C(=O)N23)c1`, the AC26 was 11400 nM.

`COC(=O)c1ccc(C)c(NS(=O)(=O)c2ccc3c(c2)OCCO3)c1`: the AC26 is 44.7 nM.

`Nc1c(N(CCC2=CCCCC2)C(=O)COc2ccc(F)cc2Cl)c(=O)[nH]c(=O)n1Cc1ccccc1`: the AC26 was 1070 nM.

With `O=C(NCCC1=CCCCC1)C1CCC(CNc2nc(=S)[nH]c3ccccc23)CC1` (configuration not stated), the AC26 was 3920 nM.

As for `Cc1ccc(OC(=O)CCC(=O)Oc2ccc(C)cc2C)c(C)c1`, the AC26 was > 19500 nM (inactive).

As to `COc1ccc(C(=O)/C=C/c2ccc(OC(=O)c3cc(OC)c(OC)c(OC)c3)cc2)cc1`, the AC26 was 3740 nM.

Take `CCCCNC(=O)c1cc(-c2ccc(F)cc2)on1`: the AC26 was 3450 nM.

Regarding `Cc1ccc(NC(=O)c2cc(S(=O)(=O)N(C)C)ccc2N2CCCC2)cc1S(=O)(=O)N(C)C`, the AC26 was 276 nM.

As for `O=C1NC(=O)N(Cc2ccccc2)C(=O)/C1=C/C=C/c1ccco1`, the AC26 is 1080 nM.
